Patent US20160355530A1, “HEPATITIS C INHIBITORS AND USES THEREOF” (AbbVie Inc., priority 2010, published 2016)
Read-outs that look alike come from different tables or passages of the source.

Legend:
[1] = system: chimeric replicon with genotype 2b NS5B; test: microbe, parasite or virus in culture; type: cell-based, HCV genotype 2b; conditions: Hepatitis C virus, read-out: 2b chimera 5% FBS EC50
[2] = system: chimeric replicon with genotype 3a NS5B; test: microbe, parasite or virus in culture; type: cell-based, HCV genotype 3a; conditions: Hepatitis C virus, read-out: 3a chimera 5% FBS EC50
[3] = system: HCV 1b-BB7 subgenomic replicon; test: microbe, parasite or virus in culture; type: cell-based, HCV genotype 1b; conditions: Hepatitis C virus, stable replicon
[4] = system: HCV NS5B polymerase 1a-H77-C316Y; test: biochemical; set-up: species or system HCV genotype 1a; conditions: ratio of enzyme IC50s, 1a H77-C316Y / 1a H77
Outline: (§1)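 Recombinant NS5B (residues 1–570, His-tagged, E. coli-expressed) copied 5 nM of a 2.1 kb HCV 1b negative-strand 3′-end RNA template with 20 μM CTP, 20 μM ATP and 0.284 μM [3H]UTP for 3 h at 30 °C. Spermine-precipitated RNA was filter-captured and counted, and IC50 was fitted by nonlinear regression.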

[5] = biological target: T1, HCV NS5B polymerase 1a-H77 (Hepatitis C virus genotype 1a, UniProt P27958); test: biochemical; set-up: species or system HCV genotype 1a; conditions: enzyme, strain 1a H77; read-out: HCV Polymerase Strain 1a H77 IC50
T1 construct: six-histidine tag; made in house; host or cells: E. coli
T1 sequence (P27958 2421-2990): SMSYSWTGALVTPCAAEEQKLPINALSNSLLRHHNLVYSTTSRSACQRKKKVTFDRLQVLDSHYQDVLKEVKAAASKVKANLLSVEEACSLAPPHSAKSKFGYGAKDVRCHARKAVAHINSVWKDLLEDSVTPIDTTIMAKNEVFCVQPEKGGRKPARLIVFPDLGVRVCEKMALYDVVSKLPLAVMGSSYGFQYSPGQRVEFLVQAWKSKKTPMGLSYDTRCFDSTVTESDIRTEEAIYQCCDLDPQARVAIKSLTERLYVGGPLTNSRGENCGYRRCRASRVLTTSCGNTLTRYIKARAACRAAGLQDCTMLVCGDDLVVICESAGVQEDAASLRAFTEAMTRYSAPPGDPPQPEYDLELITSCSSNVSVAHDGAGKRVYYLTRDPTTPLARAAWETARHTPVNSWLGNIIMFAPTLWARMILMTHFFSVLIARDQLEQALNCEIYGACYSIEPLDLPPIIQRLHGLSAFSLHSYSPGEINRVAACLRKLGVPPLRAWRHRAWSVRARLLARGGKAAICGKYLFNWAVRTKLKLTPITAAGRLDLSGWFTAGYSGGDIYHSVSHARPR
Outline: as §1

[6] = biological target: T2, HCV NS5B polymerase 1a-H77-C316Y (Hepatitis C virus genotype 1a, UniProt P27958, C2736Y); test: biochemical; set-up: species or system HCV genotype 1a
T2 construct: six-histidine tag; made in house; host or cells: E. coli
T2 sequence (P27958 2421-2990 C2736Y): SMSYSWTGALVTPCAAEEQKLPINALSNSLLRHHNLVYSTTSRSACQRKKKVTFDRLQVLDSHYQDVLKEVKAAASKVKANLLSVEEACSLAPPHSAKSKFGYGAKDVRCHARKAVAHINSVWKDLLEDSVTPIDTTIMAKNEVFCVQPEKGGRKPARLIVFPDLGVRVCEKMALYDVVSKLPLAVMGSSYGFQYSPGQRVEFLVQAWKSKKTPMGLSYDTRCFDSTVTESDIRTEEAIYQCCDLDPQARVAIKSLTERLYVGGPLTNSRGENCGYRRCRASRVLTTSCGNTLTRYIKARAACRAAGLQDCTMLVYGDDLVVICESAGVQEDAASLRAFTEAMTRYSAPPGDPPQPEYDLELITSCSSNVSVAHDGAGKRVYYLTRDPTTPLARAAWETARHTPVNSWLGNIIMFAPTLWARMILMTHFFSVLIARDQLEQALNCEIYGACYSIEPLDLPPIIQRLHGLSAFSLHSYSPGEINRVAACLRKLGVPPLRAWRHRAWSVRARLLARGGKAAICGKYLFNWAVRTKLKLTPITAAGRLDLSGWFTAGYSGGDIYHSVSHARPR
Outline: as §1

[7] = system: HCV 1a-H77 subgenomic replicon; test: microbe, parasite or virus in culture; type: cell-based, HCV genotype 1a; conditions: Hepatitis C virus, stable replicon
[8] = system: HCV 1a-H77 transient subgenomic replicon in Huh-7 derived cell line; test: microbe, parasite or virus in culture; type: cell-based, HCV genotype 1a; conditions: Hepatitis C virus, Huh-7; transient replicon, 5% FBS; read-out: Transient Replicon 1a H77 5% FBS EC50
Outline: (§2)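 Transient format: T7-transcribed replicon RNA lacking Neo, electroporated into Huh-7-derived cells (5×10^3/well), input RNA checked by luciferase at 4 h. Three-fold compound dilution series, 0.5% DMSO, 4 days at 37° C; EC50 from luciferase signal in lysed cells.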

[9] = system: HCV 1a-H77-C316Y transient subgenomic replicon in Huh-7 derived cell line; test: microbe, parasite or virus in culture; type: cell-based, HCV genotype 1a; conditions: for EC50: Hepatitis C virus, Huh-7, read-out: Transient Replicon 1a H77-C316Y 5% FBS EC50; for Transient Replicon Fold Resistance C316Y/1a: ratio of transient replicon EC50s, C316Y / 1a H77
Outline: as §2

[10] = system: chimeric replicon with 2a-J6CF-derived NS5B; test: microbe, parasite or virus in culture; type: cell-based, HCV genotype 2a; conditions: Hepatitis C virus, read-out: 2a chimera 5% FBS EC50
[11] = system: chimeric replicon with genotype 4a NS5B; test: microbe, parasite or virus in culture; type: cell-based, HCV genotype 4a; conditions: Hepatitis C virus, read-out: 4a chimera 5% FBS EC50
[12] = biological target: T3, HCV NS5B polymerase 1b BK strain (Hepatitis C virus genotype 1b, UniProt P26663); test: HCV NS5B polymerase enzymatic inhibition assay, strain 1b BK; type: biochemical; conditions: enzyme, strain 1b BK; read-out: HCV Polymerase Strain 1b BK IC50
T3 construct: six-histidine tag; made in house; host or cells: E. coli
T3 sequence (P26663 2420-2989): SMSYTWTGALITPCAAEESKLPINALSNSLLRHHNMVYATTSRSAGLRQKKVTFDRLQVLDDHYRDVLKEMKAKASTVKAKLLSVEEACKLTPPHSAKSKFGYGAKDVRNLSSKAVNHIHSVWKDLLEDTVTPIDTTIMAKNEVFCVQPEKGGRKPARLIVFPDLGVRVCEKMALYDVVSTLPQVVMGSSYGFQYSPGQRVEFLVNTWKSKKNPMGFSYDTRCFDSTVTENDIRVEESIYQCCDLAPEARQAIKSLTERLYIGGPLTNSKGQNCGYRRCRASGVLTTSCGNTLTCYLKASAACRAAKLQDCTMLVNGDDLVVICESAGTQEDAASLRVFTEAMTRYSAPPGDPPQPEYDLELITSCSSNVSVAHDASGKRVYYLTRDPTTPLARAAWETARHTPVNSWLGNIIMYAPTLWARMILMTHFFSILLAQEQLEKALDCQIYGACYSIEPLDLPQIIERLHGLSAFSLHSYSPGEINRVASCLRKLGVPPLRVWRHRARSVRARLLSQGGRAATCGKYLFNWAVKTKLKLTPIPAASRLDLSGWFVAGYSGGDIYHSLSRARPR
Outline: as §1

[13] = strain 1b BB7, 5% FBS + 40% human plasma, read-out: 1b BB7 5% FBS + 40% Human Plasma EC50
[14] = strain 1b BB7, 5% FBS, no human plasma, read-out: 1b BB7 5% FBS EC50
[15] = strain 1b BB7, 5% FBS, read-out: 1b BB7 5% FBS EC50
[16] = 5% FBS, absence of human plasma, read-out: Stable Replicon 1a H77 5% FBS EC50
[17] = strain 1a H77, 5% FBS + 40% human plasma, read-out: 1a H77 5% FBS + 40% Human Plasma EC50
[18] = strain 1a H77, 5% FBS, no human plasma, read-out: 1a H77 5% FBS EC50
[19] = strain 1a H77, 5% FBS, read-out: 1a H77 5% FBS EC50

| Structure (SMILES) | EC50 [1] | EC50 [2] | EC50 [3, 13] | EC50 [3, 14] | EC50 [3, 15] | C316Y/1a Fold Resistance [4] | IC50 [5] | IC50 [6] | EC50 [7, 16] | EC50 [7, 17] | EC50 [7, 18] | EC50 [7, 19] | EC50 [8] | EC50 [9] | Transient Replicon Fold Resistance C316Y/1a [9] | EC50 [10] | EC50 [11] | IC50 [12] |
| --- | --- | --- | --- | --- | --- | --- | --- | --- | --- | --- | --- | --- | --- | --- | --- | --- | --- | --- |
| CS(=O)(=O)N(CCCCC(=O)O)c1cc2oc(-c3ccc(F)cc3)c(-c3ncc[nH]3)c2cc1C1CC1 [Example 92, 5-{[5-cyclopropyl-2-(4-fluorophenyl)-3-(1H-imidazol-2-yl)-1-benzofuran-6-yl](methylsulfonyl)amino}pentanoic acid] | 352 nM | 43 nM | 142 nM | 25.9 nM | 25.9 nM | 9 fold | 4.9 nM | 43 nM | 21.4 nM | 175 nM | 21.4 nM | 21.4 nM | 19.4 nM | 480 nM | 25 fold | 409 nM | 283 nM | 6 nM |
| CS(=O)(=O)N(CCCO)c1cc2oc(-c3ccc(F)cc3)c(-c3ncc[nH]3)c2cc1C1CC1 [Example 65, N-[5-cyclopropyl-2-(4-fluorophenyl)-3-(1H-imidazol-2-yl)-1-benzofuran-6-yl]-N-(3-hydroxypropyl)methanesulfonamide] | 68.5 nM | 4 nM | 59.5 nM | 6.8 nM | 6.8 nM | 24 fold | 6.9 nM | 166 nM | 10.3 nM | 121 nM | 10.3 nM | 10.3 nM | 5.4 nM | 228 nM | 42 fold | 42.4 nM | 87.5 nM | 52 nM |
| CS(=O)(=O)N(CCCCCO)c1cc2oc(-c3ccc(F)cc3)c(-c3ncc[nH]3)c2cc1C1CC1 [Example 88, N-[5-cyclopropyl-2-(4-fluorophenyl)-3-(1H-imidazol-2-yl)-1-benzofuran-6-yl]-N-(5-hydroxypentyl)methanesulfonamide] | 24.5 nM | 3.2 nM | 108 nM | 4.9 nM | 4.9 nM | 12 fold | 4 nM | 46 nM | 4.1 nM | 119 nM | 4.1 nM | 4.1 nM | 1.2 nM | 38.2 nM | 32 fold | 25.3 nM | 33.9 nM | 9 nM |
| CCOC(=O)CCCCN(c1cc2oc(-c3ccc(F)cc3)c(-c3ncc[nH]3)c2cc1C1CC1)S(C)(=O)=O [Example 50, ethyl 5-{[5-cyclopropyl-2-(4-fluorophenyl)-3-(1H-imidazol-2-yl)-1-benzofuran-6-yl](methylsulfonyl)amino}pentanoate] | 147 nM | 15.3 nM | 67 nM | 8.7 nM | 8.7 nM | 27 fold | 3.9 nM | 104 nM | 12.2 nM | 97 nM | 12.2 nM | 12.2 nM | 9.5 nM | 169 nM | 18 fold | 90.7 nM | 149 nM | 12 nM |
| CC(C)CCN(c1cn2nc(-c3ccc(F)cc3)c(-c3ncc[nH]3)c2cc1C1CC1)S(C)(=O)=O [Example 17, N-[5-cyclopropyl-2-(4-fluorophenyl)-3-(1H-imidazol-2-yl)pyrazolo[1,5-a]pyridin-6-yl]-N-(3-methylbutyl)methanesulfonamide] | 1000 nM | 148 nM | 395 nM | 57.2 nM | 57.2 nM | 52 fold | 34.9 nM | 1800 nM | 98.9 nM | 1200 nM | 98.9 nM | 98.9 nM | 55 nM | 838 nM | 15 fold | 1000 nM | > 1000 nM | 438 nM |
| CS(=O)(=O)N(CCCO)c1cc2oc(-c3ccc(F)cc3)c(C3=NOCCN3)c2cc1C1CC1 [Example 137, N-[5-cyclopropyl-3-(5,6-dihydro-4H-1,2,4-oxadiazin-3-yl)-2-(4-fluorophenyl)-1-benzofuran-6-yl]-N-(3-hydroxypropyl)methanesulfonamide] | 214 nM | 33 nM | 113 nM | 17 nM | 17 nM | 9 fold | 4.2 nM | 39 nM | 15 nM | 59 nM | 15 nM | 15 nM | 10.1 nM | 107 nM | 11 fold | 182 nM | 172 nM | 79 nM |
| CS(=O)(=O)N(CCCCO)c1cc2oc(-c3ccc(F)cc3)c(-c3ncc[nH]3)c2cc1C1CC1 [Example 5, N-[5-cyclopropyl-2-(4-fluorophenyl)-3-(1H-imidazol-2-yl)-1-benzofuran-6-yl]-N-(4-hydroxybutyl)methanesulfonamide] | 27.9 nM | 4.7 nM | 22 nM | 3.69 nM | 3.7 nM | 14 fold | 3.9 nM | 53 nM | 3.2 nM | 50 nM | 3.19 nM | 3.2 nM | 3 nM | 88.1 nM | 29 fold | 28.9 nM | 32.2 nM | 17 nM |
| CCS(=O)(=O)CCN(c1cc2oc(-c3ccc(F)cc3)c(-c3ncc[nH]3)c2cc1C1CC1)S(C)(=O)=O [Example 96, N-[5-cyclopropyl-2-(4-fluorophenyl)-3-(1H-imidazol-2-yl)-1-benzofuran-6-yl]-N-[2-(ethylsulfonyl)ethyl]methanesulfonamide] | 126 nM | 5.9 nM | 37 nM | 4 nM | 4 nM | 6 fold | 8.9 nM | 58 nM | 6.3 nM | 58 nM | 6.2 nM | 6.3 nM | 1.1 nM | 80.6 nM | 73 fold | 43.7 nM | 41.9 nM | 34 nM |
| CC1NC(c2c(-c3ccc(F)cc3)oc3cc(N(CCS(C)(=O)=O)S(C)(=O)=O)c(C4CC4)cc23)=NO1 (stereo not drawn) [Example 12, N-[5-cyclopropyl-2-(4-fluorophenyl)-3-(5-methyl-4,5-dihydro-1,2,4-oxadiazol-3-yl)-1-benzofuran-6-yl]-N-[2-(methylsulfonyl)ethyl]methanesulfonamide] | 221 nM | 26 nM | 82 nM | 11 nM | 11 nM | 8 fold | 5.5 nM | 43 nM | 42.6 nM | 50 nM | 42.6 nM | 42.6 nM | 78 nM | 1220 nM | 16 fold | 285 nM | 73.3 nM | 17 nM |
